Test results: ChEMBL document CHEMBL1201862, “PubChem BioAssay data set” (2004)
Structures can show the parent of a compound that is named as a salt. Active and inactive are the calls of the source. Rule as the data show it, for most assays here: actives have a measured EC50 and inactives only a lower limit.

How the values were obtained:
[1] = HEp-2 cell cytotoxicity, dose response, cytotoxicity control for RSV inhibitor project, HTS (AID 2410); assay type: functional; settings: human respiratory syncytial virus
[2] = Luminescence Cell-Based Dose Retest to Confirm Inhibitors of Cancer Stem Cells. [Related pubchem assays (depositor defined):AID2717, AID2721]; assay type: functional; settings: Homo sapiens
[3] = molecular target: T1, Heat shock factor protein 1 (Mus musculus, UniProt P38532); assay: HSF1 potentiators in luciferase reporter cells, confirmation, cell-based, NIH3T3, luminescence, dose retest (AID 435004); assay type: functional;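 also: stress induced by proteasome inhibitor MG132 added 30 min after compound; luciferase reporter driven by HSF1 response element in NIH3T3 cells; actives raise luminescence as potentiators of the MG132 stress response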
T1 sequence (P38532 whole entry): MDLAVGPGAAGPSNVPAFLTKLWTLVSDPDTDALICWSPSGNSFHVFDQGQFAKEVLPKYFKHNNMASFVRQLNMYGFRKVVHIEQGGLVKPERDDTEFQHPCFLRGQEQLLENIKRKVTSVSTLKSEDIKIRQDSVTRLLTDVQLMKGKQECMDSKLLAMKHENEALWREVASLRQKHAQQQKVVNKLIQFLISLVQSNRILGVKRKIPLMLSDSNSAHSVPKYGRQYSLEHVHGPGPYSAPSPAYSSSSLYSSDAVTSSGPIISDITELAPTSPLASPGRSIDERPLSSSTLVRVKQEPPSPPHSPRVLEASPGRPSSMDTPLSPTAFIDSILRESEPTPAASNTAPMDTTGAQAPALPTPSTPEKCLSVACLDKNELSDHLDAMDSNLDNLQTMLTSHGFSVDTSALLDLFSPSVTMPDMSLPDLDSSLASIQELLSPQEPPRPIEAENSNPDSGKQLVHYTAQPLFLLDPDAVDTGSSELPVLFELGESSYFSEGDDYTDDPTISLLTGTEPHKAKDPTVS

[4] = molecular target: T1, Heat shock factor protein 1; assay: inhibition of MG132-induced HSE-luciferase signal, confirmation, cell-based, NIH3T3, luminescence, dose retest (AID 2382); assay type: functional;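 also: NIH3T3 fibroblasts with HSF1-driven luciferase reporter stressed by proteasome inhibitor MG132; luminescence from HSF1-driven luciferase expression after 8 hours of MG132 stress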
[5] = cytotoxicity toward NIH3T3 fibroblasts, dose response, counter-screen, cell-based, ATP luminescence, mouse fibroblasts (AID 2010); assay type: functional;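 also: cells exposed to compound for about 90 hours before reading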
[6] = inhibitors of intracellular T. cruzi replication, confirmation, NIH3T3 host cells, beta-gal luminescence (AID 2044); assay type: functional, cell-based;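 also: intracellular parasites grown in NIH/3T3 mouse fibroblasts as host cells; luminescent beta-galactosidase reporter signal from transgenic T. cruzi replicating inside host cells; inhibitors lower the luminescence signal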
Streptococcus = assay: Group A Streptococcus viability loss, dose response, counter-screen for streptokinase expression inhibitor project, luminescence, BacTiterGlo (AID 1915); assay type: functional, organism-based;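 also: potency for reduction of bacterial viability or growth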
[7] = system: Streptococcus sp. 'group A'; assay: growth inhibition of control SK(-) GAS strain, dose response, counter-screen for streptokinase expression inhibitor project, luminescence, kanamycin, BacTiterGlo, confirmation (AID 1900); assay type: functional, organism-based
[8] = NIH-3T3 fibroblast cytotoxicity, dose response, cytotoxicity control, cell-based, fluorescence, Alamar Blue, secondary assay (AID 2327); assay type: functional;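 also: NIH-3T3 mouse fibroblasts cultured with fluconazole at 8 µg/mL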
[9] = C. albicans growth with fluconazole, confirmation, fluorescence, retest (AID 2467); assay type: functional, cell-based
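For AC50 in this document: cells exposed to compound for roughly 70 hours or longer before luminescence read.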

c1ccc2c(c1)OCC(c1csc3ncnc(N4CCCCC4)c13)O2 (stereo unspecified)
CC50 [1]: 16.8 µM (active)

CC(=O)Oc1c(Cl)cc(Cl)cc1/C=C/c1ccc2ccccc2n1
AC50 [2]: 1.81 µM (active)

CC(C)SC1=NC(/C=C/c2ccc(Cl)cc2Cl)=CC(C)(C)N1
EC50 [3]: 38.9 µM (active)

O=C(Nc1ccsc1C(=O)O)c1cccc(Oc2ccccc2)c1
CC50 [1]: 18.3 µM (active)

COc1cc(NS(=O)(=O)c2ccc(NC(=S)NC(=O)/C=C/c3ccc(OC)c(OC)c3)cc2)ncn1
EC50 [4]: > 195 µM (not active)

Cc1ccc(SCCN=C(S)Nc2ccc(C)cc2C)cc1
EC50 [5]: > 60 µM (not active)
EC50 [6]: 2.2 µM (active)

Cc1nnc(-c2cnn(-c3ccccc3)c2N)n1Cc1cccc(C(F)(F)F)c1
EC50 [4]: > 195 µM (not active)

CCOC(=O)c1cnc(SC)nc1Oc1cccc(NS(=O)(=O)c2ccccc2)c1
EC50 [5]: > 60 µM (not active)
EC50 [6]: 1.64 µM (active)

CCOc1ccccc1CN1CCN(CC2=Cc3cc(OC)ccc3OC2)CC1CCO (stereo unspecified)
EC50 [5]: > 60 µM (not active)
EC50 [6]: 1.29 µM (active)

CCN(CC)S(=O)(=O)c1ccc(N2CCN(C)CC2)c(NC(=O)COc2ccc(F)cc2Cl)c1
EC50 [5]: > 60 µM (not active)
EC50 [6]: 0.252 µM (active)

O=C(COC(=O)c1cn(-c2ccccc2)nc1-c1ccccc1)c1ccc([N+](=O)[O-])cc1
EC50 [3]: > 260 µM (inactive)

COc1ccccc1-n1c(O)cc(=O)nc1SCC(=O)Nc1ccc(Br)cc1
EC50 (Streptococcus): 22.6 µM (active)
EC50 [7]: 6.68 µM (active)

COc1ccc(Br)c2oc(SC)cc(=O)c12
CC50 [1]: > 50 µM (active)

CCCCC1SC(N/N=C/c2ccco2)=NC1=O (stereo unspecified)
EC50 [8]: > 150 µM (inactive)
EC50 [9]: 5.08 µM (active)

CCN=C(S)NNC(=O)c1cc(-c2cccc(C)c2)nc2ccccc12
EC50 [8]: 20.2 µM (inconclusive)
EC50 [9]: 2.5 µM (active)

CCC(=O)N1CCN(c2cc(N3CCN(C)CC3)c(F)cc2[N+](=O)[O-])CC1
EC50 [5]: > 60 µM (not active)
EC50 [6]: 0.765 µM (active)

COc1ccc(C2NC(S)=NC3=C2CCc2cc(OC)ccc23)cc1 (stereo unspecified)
CC50 [1]: 26.4 µM (active)

NC(=O)c1c(NC(=O)c2ccncc2)sc2c1CCCC2
EC50 [8]: > 150 µM (inactive)
EC50 [9]: 2.12 µM (active)

COC(=O)c1cc(=O)n(Cc2cccs2)/c(=N/c2ccc(F)cc2)s1
AC50 [2]: 3.81 µM (active)

Cc1cc(C)c2nc(O)c(CN(Cc3cccs3)C(S)=NCc3ccco3)cc2c1
AC50 [2]: 61.4 µM (active)

C/C(=N\NC(=O)c1nn(C)c(C)c1Br)c1ccc(NC(=O)C2CCCC2)cc1
EC50 [8]: 34.4 µM (active)
EC50 [9]: > 38 µM (not active)

O=C(NC1CCCCC1)C1CCN(c2nccs2)CC1
EC50 [4]: > 195 µM (not active)

COc1ccc(Nc2nc(-c3ccccc3)nc3ccccc23)cc1
CC50 [1]: 13.1 µM (active)

Cc1cccc(CN2C(=O)[C@@H]3Cc4c([nH]c5ccccc45)C(C)(C)N3C2=O)c1
AC50 [2]: 11.9 µM (active)

Cc1ccsc1/C=C1\C(=O)NC(=S)N(C)C1=O
EC50 [4]: > 195 µM (not active)

COc1cccc(-c2ccc(SCC(=O)c3ccccc3)nn2)c1
CC50 [1]: 35.2 µM (active)

NS(=O)(=O)c1ccc(CCNCC#Cc2ccccc2)cc1
EC50 [4]: > 195 µM (not active)

COc1ccc(-n2nc(C(=O)NCC(=O)NCc3ccccc3OC)c3ccccc3c2=O)c(OC)c1
EC50 [4]: > 195 µM (not active)

COc1cccc(-c2nc(CCl)cs2)c1
EC50 [5]: > 60 µM (not active)
EC50 [6]: 3.25 µM (active)

Cc1ccc(NC(=O)NC2CCCCCCC2)c(C)c1
EC50 [8]: 19.6 µM (inconclusive)
EC50 [9]: > 38 µM (not active)

CCN(c1ccccc1)S(=O)(=O)c1cccc(C(=O)NCC(c2cccs2)N2CCOCC2)c1 (stereo unspecified)
AC50 [2]: > 195 µM (inactive)

Cc1nn(-c2ccccc2)c(Cl)c1/C=C1\C(=O)N(C)C(=S)N1C
CC50 [1]: 26.6 µM (active)

O=C(Nc1ccc(Cl)c([N+](=O)[O-])c1)c1ccc(NCCCN2CCOCC2)c([N+](=O)[O-])c1
EC50 [5]: > 60 µM (not active)
EC50 [6]: 0.963 µM (active)

Cc1ccc(C)c(N2CCN(C(=O)c3cc(S(=O)(=O)N4CCCC4)cn3C)CC2)c1
EC50 [4]: > 195 µM (not active)

O=C(NCc1ccccc1)C1CCCN(S(=O)(=O)c2cccc3nsnc23)C1 (stereo unspecified)
EC50 [4]: > 195 µM (not active)

CCOC(=O)C(O)(c1ccc(NC(=O)c2ccc(Cl)c(Cl)c2)cc1)C(F)(F)F (stereo unspecified)
CC50 [1]: 20.9 µM (active)

O=C(Nc1ccc(Br)cn1)c1cccc(-c2cc3ccccc3oc2=O)c1
AC50 [2]: 8.81 µM (active)

C[C@@H](O)[C@H]1C(=O)N2C(C(=O)O)=C(S[C@@H]3CN[C@H](C(=O)N(C)C)C3)[C@H](C)[C@H]12 [MEROPENEM]
EC50 (Streptococcus): 1.15 µM (active)
EC50 [7]: 0.153 µM (active)

O=C(NC(=S)NCCc1ccccc1)C1CCCCC1
AC50 [2]: 10.6 µM (active)

N#Cc1c(F)cccc1N1CCOCC1
CC50 [1]: 23.6 µM (active)

O=C(Nc1ccc(Cl)cc1)N1CCCN(c2ccc(C(F)(F)F)cc2[N+](=O)[O-])CC1
AC50 [2]: 4.79 µM (active)

CN1CCN(C(=O)CCc2ccc(S(=O)(=O)NC3CCCCC3)cc2)CC1
EC50 [5]: > 60 µM (not active)
EC50 [6]: 0.141 µM (active)

C=CCOc1c(Cl)cc(CNc2ccc(C)c(Cl)c2)cc1OC
EC50 [5]: 0.491 µM (active)
EC50 [6]: 2.75 µM (active)

Cc1sc2ncnc(N3CCC(C(=O)Nc4nc(-c5cccs5)cs4)CC3)c2c1C
EC50 [5]: > 60 µM (not active)
EC50 [6]: 1.6 µM (active)
EC50 [4]: 1.07 µM (active)

COc1cccc(CN(C(=O)Cc2c[nH]c3ccccc23)C(C(=O)NC2CCCCC2)c2cccs2)c1 (stereo unspecified)
EC50 [5]: > 60 µM (not active)
EC50 [6]: 1.98 µM (active)

Cc1[nH]n(-c2cccc3ccccc23)c(=O)c1/C=N/NC(=O)c1cccc([N+](=O)[O-])c1
EC50 (Streptococcus): 7.09 µM (active)
EC50 [8]: 12.1 µM (active)
EC50 [7]: 2.98 µM (active)
EC50 [9]: > 38 µM (not active)

Cc1nn(CC(=O)NCCCc2ccccc2)c(C)c1[N+](=O)[O-]
EC50 [8]: > 150 µM (inactive)

CO/N=C/c1ccc(N2CCN(C(=O)c3ccc(C)cc3)CC2)c([N+](=O)[O-])c1
EC50 [8]: > 160 µM (inactive)
EC50 [9]: > 38 µM (not active)

O=C(c1ccc(C(=O)N2CCN(c3ccccc3F)CC2)nc1)N1CCN(c2ccccc2F)CC1
EC50 [8]: > 160 µM (inactive)
EC50 [9]: > 38 µM (not active)

Cc1cc(C)nc(N=C(NCc2ccc3c(c2)OCO3)NC(=O)Nc2ccccc2)n1
EC50 [8]: > 150 µM (inactive)
EC50 [9]: > 38 µM (not active)

CNC(=S)N/N=C/c1ccc(-c2ccc(Cl)c([N+](=O)[O-])c2)o1
EC50 [8]: > 150 µM (inconclusive)
EC50 [9]: > 38 µM (not active)

CNC(=O)c1ccc2c(c1)nnn2C
EC50 [8]: 58.7 µM (active)
EC50 [9]: > 38 µM (not active)

Cc1nc2ccccc2c(N)c1C(=O)/C=C/c1ccccc1
CC50 [1]: 9.1 µM (active)

COc1ccccc1C(=O)Nc1ccccc1N1CCN(C(=O)c2ccc(Cl)cc2)CC1
CC50 [1]: 26.5 µM (active)

CCN(CC)CCOC(=O)c1ccc(N)cc1 [PROCAINE HYDROCHLORIDE]
EC50 [4]: > 195 µM (not active)

O=C(c1ccc([N+](=O)[O-])s1)N1CCN(c2ccccc2)CC1
EC50 [5]: > 60 µM (not active)
EC50 [6]: 0.808 µM (active)

CC(Oc1ccc(Br)cc1)C(=O)NC1CCN(Cc2ccccc2)CC1 (stereo unspecified)
EC50 [5]: > 60 µM (not active)
EC50 [6]: 0.579 µM (active)

CC(=S)/C=C1\Sc2ccccc2N1C
EC50 [5]: > 60 µM (not active)
EC50 [6]: 0.739 µM (active)
EC50 [8]: > 150 µM (inactive)
EC50 [9]: 1.9 µM (active)

O=C(Nc1ccc2c(c1)OCO2)c1ccc(COc2ccc3c(c2)CCC3)o1
AC50 [2]: 3.1 µM (active)

Cc1cc(NC(=O)CSc2nnc(C)n2C)no1
EC50 [4]: > 195 µM (not active)

Cc1ccc(/C=C/C(=O)NCCc2ccccc2)o1
AC50 [2]: > 195 µM (inactive)

Cc1ccc(/C=N/NC2=NC(=O)CS2)o1
CC50 [1]: 21.5 µM (active)

COc1ccc(S(=O)(=O)NCC(c2cccnc2)N2CCN(Cc3ccccc3)CC2)cc1 (stereo unspecified)
EC50 [5]: > 60 µM (not active)
EC50 [6]: 1.58 µM (active)

COC(=O)c1c(C)nc(O)nc1SCc1cccc2ccccc12
CC50 [1]: > 50 µM (active)

CC(=O)Nc1ccc(S(=O)(=O)NCc2ccc(C(=O)NCc3ccc4c(c3)OCO4)cc2)cc1
EC50 [4]: > 195 µM (not active)

O=C(O)/C=C\C(=O)Nc1ccc(OCc2ccccc2)cc1
EC50 [4]: 31 µM (active)

O=C(NCc1ccccc1)N1CCC(CO)(Cc2cccc(F)c2)CC1
EC50 [4]: > 195 µM (not active)

COc1ccc(NC(=O)CN2C(=O)COc3ccc(S(=O)(=O)N4CCOCC4)cc32)c(OC)c1
EC50 [4]: > 195 µM (not active)
